What was measured:
Conditions in all cases: human; call rule not given here
[1] = system: Hepatotoxicity; test: FDA HLAED, alkaline phosphatase increase
[2] = system: Hepatotoxicity; test: FDA HLAED, lactate dehydrogenase (LDH) increase
[3] = system: Hepatotoxicity; test: FDA HLAED, liver enzyme composite activity
[4] = system: Hepatotoxicity; test: FDA HLAED, gamma-glutamyl transferase (GGT) increase
[5] = system: Hepatotoxicity; test: FDA HLAED, serum glutamic pyruvic transaminase (SGPT) increase
[6] = system: Hepatotoxicity; test: FDA HLAED, serum glutamic oxaloacetic transaminase (SGOT) increase
Throughout, for GGT Increase - Index Value: reference of the scale not given here.
Throughout, for LDH Increase - Index Value: reference of the scale not given here.

SMILES: C[C@@H]1C[C@H]2[C@H]3[C@H]([C@@H](O)C[C@]2(C)[C@@]1(O)C(=O)CO)[C@@]1(C)C=CC(=O)C=C1C[C@H]3Cl [ALCLOMETASONE]
- Alkaline Phosphatase Increase - Activity Score [1]: Inactive
- Alkaline Phosphatase Increase - Index Value [1]: 0
- Alkaline Phosphatase Increase - Number of Reports [1]: < 4
- LDH Increase - Activity Score [2]: Inactive
- LDH Increase - Index Value [2]: 0
- LDH Increase - Number of Reports [2]: < 4
- Composite Activity - Active [3]: 0
- Composite Activity - Marginal [3]: 0
- Composite Activity - Score [3]: Inactive
- GGT Increase - Activity Score [4]: Inactive
- GGT Increase - Index Value [4]: 0
- GGT Increase - Number of Reports [4]: < 4
- SGPT Increase - Activity Score [5]: Inactive
- SGPT Increase - Index Value [5]: 0
- SGPT Increase - Number of Reports [5]: < 4
- SGOT Increase - Activity Score [6]: Inactive
- SGOT Increase - Index Value [6]: 0
- SGOT Increase - Number of Reports [6]: < 4

SMILES: NCCCC(O)(P(=O)(O)O)P(=O)(O)O [ALENDRONIC ACID]
- Alkaline Phosphatase Increase - Activity Score [1]: Inactive
- Alkaline Phosphatase Increase - Index Value [1]: 2.5
- Alkaline Phosphatase Increase - Number of Reports [1]: >= 4
- LDH Increase - Activity Score [2]: Inactive
- LDH Increase - Index Value [2]: 1.5
- LDH Increase - Number of Reports [2]: >= 4
- Composite Activity - Active ([3]; Liver): 0
- Composite Activity - Marginal ([3]; Liver): 0
- Composite Activity - Score ([3]; Liver): Inactive
- GGT Increase - Activity Score [4]: Inactive
- GGT Increase - Index Value [4]: 0.8
- GGT Increase - Number of Reports [4]: >= 4
- SGPT Increase - Activity Score [5]: Inactive
- SGPT Increase - Index Value [5]: 1.4
- SGPT Increase - Number of Reports [5]: >= 4
- SGOT Increase - Activity Score [6]: Inactive
- SGOT Increase - Index Value [6]: 1.4
- SGOT Increase - Number of Reports [6]: >= 4

SMILES: Cc1nnc2n1-c1ccc(Cl)cc1C(c1ccccc1)=NC2 [ALPRAZOLAM]
- Alkaline Phosphatase Increase - Activity Score [1]: Inactive
- Alkaline Phosphatase Increase - Index Value [1]: 0.4
- Alkaline Phosphatase Increase - Number of Reports [1]: >= 4
- LDH Increase - Activity Score [2]: Inactive
- LDH Increase - Index Value [2]: 0.5
- LDH Increase - Number of Reports [2]: >= 4
- Composite Activity - Active [3]: 0
- Composite Activity - Marginal [3]: 0
- Composite Activity - Score [3]: Inactive
- GGT Increase - Activity Score [4]: Inactive
- GGT Increase - Index Value [4]: 0
- GGT Increase - Number of Reports [4]: < 4
- SGPT Increase - Activity Score [5]: Inactive
- SGPT Increase - Index Value [5]: 0.9
- SGPT Increase - Number of Reports [5]: >= 4
- SGOT Increase - Activity Score [6]: Inactive
- SGOT Increase - Index Value [6]: 0.7
- SGOT Increase - Number of Reports [6]: >= 4

SMILES: CCCCC[C@H](O)/C=C/[C@H]1[C@H](O)CC(=O)[C@@H]1CCCCCCC(=O)O [ALPROSTADIL]
- Alkaline Phosphatase Increase - Activity Score [1]: Inactive
- Alkaline Phosphatase Increase - Index Value [1]: 0
- Alkaline Phosphatase Increase - Number of Reports [1]: < 4
- LDH Increase - Activity Score [2]: Inactive
- LDH Increase - Index Value [2]: 0
- LDH Increase - Number of Reports [2]: < 4
- Composite Activity - Active [3]: 0
- Composite Activity - Marginal [3]: 0
- Composite Activity - Score [3]: Inactive
- GGT Increase - Activity Score [4]: Inactive
- GGT Increase - Index Value [4]: 0
- GGT Increase - Number of Reports [4]: < 4
- SGPT Increase - Activity Score [5]: Inactive
- SGPT Increase - Index Value [5]: 0
- SGPT Increase - Number of Reports [5]: < 4
- SGOT Increase - Activity Score [6]: Inactive
- SGOT Increase - Index Value [6]: 0
- SGOT Increase - Number of Reports [6]: < 4

SMILES: CN(C)c1nc(N(C)C)nc(N(C)C)n1 [ALTRETAMINE]
- Alkaline Phosphatase Increase - Activity Score [1]: Inactive
- Alkaline Phosphatase Increase - Index Value [1]: 18.3
- Alkaline Phosphatase Increase - Number of Reports [1]: < 4
- LDH Increase - Activity Score [2]: Inactive
- LDH Increase - Index Value [2]: 0
- LDH Increase - Number of Reports [2]: < 4
- Composite Activity - Active [3]: 0
- Composite Activity - Marginal [3]: 0
- Composite Activity - Score [3]: Inactive
- GGT Increase - Activity Score [4]: Inactive
- GGT Increase - Index Value [4]: 0
- GGT Increase - Number of Reports [4]: < 4
- SGPT Increase - Activity Score [5]: Inactive
- SGPT Increase - Index Value [5]: 0
- SGPT Increase - Number of Reports [5]: < 4
- SGOT Increase - Activity Score [6]: Inactive
- SGOT Increase - Index Value [6]: 0
- SGOT Increase - Number of Reports [6]: < 4

SMILES: CC(=O)OCC(=O)[C@@]12OC3(CCCC3)O[C@@H]1C[C@H]1[C@@H]3CCC4=CC(=O)C=C[C@]4(C)[C@@]3(F)[C@@H](O)C[C@@]12C [AMCINONIDE]
- Alkaline Phosphatase Increase - Activity Score [1]: Inactive
- Alkaline Phosphatase Increase - Index Value [1]: 0
- Alkaline Phosphatase Increase - Number of Reports [1]: < 4
- LDH Increase - Activity Score [2]: Inactive
- LDH Increase - Index Value [2]: 0
- LDH Increase - Number of Reports [2]: < 4
- Composite Activity - Active [3]: 0
- Composite Activity - Marginal [3]: 0
- Composite Activity - Score [3]: Inactive
- GGT Increase - Activity Score [4]: Inactive
- GGT Increase - Index Value [4]: 0
- GGT Increase - Number of Reports [4]: < 4
- SGPT Increase - Activity Score [5]: Inactive
- SGPT Increase - Index Value [5]: 0
- SGPT Increase - Number of Reports [5]: < 4
- SGOT Increase - Activity Score [6]: Inactive
- SGOT Increase - Index Value [6]: 0
- SGOT Increase - Number of Reports [6]: < 4

SMILES: NCCCNCCSP(=O)(O)O [AMIFOSTINE]
- Alkaline Phosphatase Increase - Activity Score [1]: Inactive
- Alkaline Phosphatase Increase - Index Value [1]: 0
- Alkaline Phosphatase Increase - Number of Reports [1]: < 4
- LDH Increase - Activity Score [2]: Inactive
- LDH Increase - Index Value [2]: 41.5
- LDH Increase - Number of Reports [2]: < 4
- Composite Activity - Active ([3]; Liver): 0
- Composite Activity - Marginal ([3]; Liver): 0
- Composite Activity - Score ([3]; Liver): Inactive
- GGT Increase - Activity Score [4]: Inactive
- GGT Increase - Index Value [4]: 0
- GGT Increase - Number of Reports [4]: < 4
- SGPT Increase - Activity Score [5]: Inactive
- SGPT Increase - Index Value [5]: 0
- SGPT Increase - Number of Reports [5]: < 4
- SGOT Increase - Activity Score [6]: Inactive
- SGOT Increase - Index Value [6]: 0
- SGOT Increase - Number of Reports [6]: < 4

SMILES: CCC1(c2ccc(N)cc2)CCC(=O)NC1=O (configuration not stated) [AMINOGLUTETHIMIDE]
- Alkaline Phosphatase Increase - Activity Score [1]: Inactive
- Alkaline Phosphatase Increase - Index Value [1]: 0
- Alkaline Phosphatase Increase - Number of Reports [1]: < 4
- LDH Increase - Activity Score [2]: Inactive
- LDH Increase - Index Value [2]: 0
- LDH Increase - Number of Reports [2]: < 4
- Composite Activity - Active [3]: 0
- Composite Activity - Marginal [3]: 0
- Composite Activity - Score [3]: Inactive
- GGT Increase - Activity Score [4]: Inactive
- GGT Increase - Index Value [4]: 0
- GGT Increase - Number of Reports [4]: < 4
- SGPT Increase - Activity Score [5]: Inactive
- SGPT Increase - Index Value [5]: 0
- SGPT Increase - Number of Reports [5]: < 4
- SGOT Increase - Activity Score [6]: Inactive
- SGOT Increase - Index Value [6]: 0
- SGOT Increase - Number of Reports [6]: < 4

SMILES: CCCCc1oc2ccccc2c1C(=O)c1cc(I)c(OCCN(CC)CC)c(I)c1 [AMIODARONE]
- Alkaline Phosphatase Increase - Activity Score [1]: Inactive
- Alkaline Phosphatase Increase - Index Value [1]: 0
- Alkaline Phosphatase Increase - Number of Reports [1]: < 4
- LDH Increase - Activity Score [2]: Inactive
- LDH Increase - Index Value [2]: 0
- LDH Increase - Number of Reports [2]: < 4
- Composite Activity - Active ([3]; Liver): 0
- Composite Activity - Marginal ([3]; Liver): 0
- Composite Activity - Score ([3]; Liver): Inactive
- GGT Increase - Activity Score [4]: Inactive
- GGT Increase - Index Value [4]: 0
- GGT Increase - Number of Reports [4]: < 4
- SGPT Increase - Activity Score [5]: Inactive
- SGPT Increase - Index Value [5]: 0
- SGPT Increase - Number of Reports [5]: < 4
- SGOT Increase - Activity Score [6]: Inactive
- SGOT Increase - Index Value [6]: 0
- SGOT Increase - Number of Reports [6]: < 4
